Measurements reported in PubChem BioAssay (NCI).
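96-well plates; 48 h exposure; 5 concentrations. Endpoints by linear interpolation between flanking doses. Not reached: highest tested concentration assigned. TGI: total growth inhibition.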

Assays:
Assay in all cases: growth of human tumour cells (NCI), 48 h
786-0 renal = system: 786-0 renal
A498 renal = system: A498 renal
A549 NSCLC = system: A549 NSCLC
ACHN renal = system: ACHN renal
CCRF-CEM leukemia = system: CCRF-CEM leukemia
COLO 205 colon = system: COLO 205 colon
DLD-1 colon = system: DLD-1 colon
DMS 114 small cell lung = system: DMS 114 small cell lung
DMS 273 small cell lung = system: DMS 273 small cell lung
EKVX NSCLC = system: EKVX NSCLC
HCC-2998 colon = system: HCC-2998 colon
HCT-116 colon = system: HCT-116 colon
HCT-15 colon = system: HCT-15 colon
HL-60(TB) leukemia = system: HL-60(TB) leukemia
HOP-18 NSCLC = system: HOP-18 NSCLC
HOP-62 NSCLC = system: HOP-62 NSCLC
HOP-92 NSCLC = system: HOP-92 NSCLC
HT29 colon = system: HT29 colon
IGROV1 ovarian = system: IGROV1 ovarian
K-562 leukemia = system: K-562 leukemia
KM12 colon = system: KM12 colon
KM20L2 colon = system: KM20L2 colon
LOX IMVI melanoma = system: LOX IMVI melanoma
LXFL 529 NSCLC = system: LXFL 529 NSCLC
M14 melanoma = system: M14 melanoma
M19-MEL melanoma = system: M19-MEL melanoma
MALME-3M melanoma = system: MALME-3M melanoma
MOLT-4 leukemia = system: MOLT-4 leukemia
NCI-H226 lung = system: NCI-H226 lung
NCI-H23 lung = system: NCI-H23 lung
NCI-H460 lung = system: NCI-H460 lung
NCI-H522 lung = system: NCI-H522 lung
OVCAR-3 ovarian = system: OVCAR-3 ovarian
OVCAR-4 ovarian = system: OVCAR-4 ovarian
OVCAR-8 ovarian = system: OVCAR-8 ovarian
RPMI-8226 leukemia = system: RPMI-8226 leukemia
RXF 393 renal = system: RXF 393 renal
SF-268 CNS = system: SF-268 CNS
SF-295 CNS = system: SF-295 CNS
SF-539 CNS = system: SF-539 CNS
SK-MEL-2 melanoma = system: SK-MEL-2 melanoma
SK-MEL-28 melanoma = system: SK-MEL-28 melanoma
SK-OV-3 ovarian = system: SK-OV-3 ovarian
SN12C renal = system: SN12C renal
SNB-19 CNS = system: SNB-19 CNS
SNB-75 CNS = system: SNB-75 CNS
SR leukemia = system: SR leukemia
SW-620 colon = system: SW-620 colon
TK-10 renal = system: TK-10 renal
U251 CNS = system: U251 CNS
UACC-257 melanoma = system: UACC-257 melanoma
UACC-62 melanoma = system: UACC-62 melanoma
UO-31 renal = system: UO-31 renal
XF 498 CNS = system: XF 498 CNS
CAKI-1 renal = system: CAKI-1 renal
OVCAR-5 ovarian = system: OVCAR-5 ovarian
SK-MEL-5 melanoma = system: SK-MEL-5 melanoma
SNB-78 CNS = system: SNB-78 CNS

For CC(=O)c1cccc(NCn2nnc3ccccc32)c1, the TGI (786-0 renal) was > 100 µM, the TGI (A498 renal) was > 100 µM and the TGI (A549 NSCLC) was > 100 µM. For the same molecule, the TGI (ACHN renal) was > 100 µM, the TGI (CCRF-CEM leukemia) was > 100 µM and the TGI (COLO 205 colon) was > 100 µM. The TGI (DLD-1 colon) was > 100 µM, the TGI (DMS 114 small cell lung) was > 100 µM and the TGI (DMS 273 small cell lung) was > 100 µM. The TGI (EKVX NSCLC) was > 100 µM, the TGI (HCC-2998 colon) was > 100 µM and the TGI (HCT-116 colon) was > 100 µM. The TGI (HCT-15 colon) was > 100 µM, the TGI (HL-60(TB) leukemia) was > 100 µM and the TGI (HOP-18 NSCLC) was > 100 µM. The TGI (HOP-62 NSCLC) was > 100 µM, the TGI (HOP-92 NSCLC) was > 100 µM and the TGI (HT29 colon) was > 100 µM. The TGI (IGROV1 ovarian) was > 100 µM, the TGI (K-562 leukemia) was > 100 µM and the TGI (KM12 colon) was > 100 µM. For the same molecule, the TGI (KM20L2 colon) was > 100 µM, the TGI (LOX IMVI melanoma) was > 100 µM and the TGI (LXFL 529 NSCLC) was > 100 µM. The TGI (M14 melanoma) was > 100 µM, the TGI (M19-MEL melanoma) was > 100 µM and the TGI (MALME-3M melanoma) was > 100 µM. The TGI (MOLT-4 leukemia) was > 100 µM, the TGI (NCI-H226 lung) was > 100 µM and the TGI (NCI-H23 lung) was > 100 µM. For the same molecule, the TGI (NCI-H460 lung) was > 100 µM, the TGI (NCI-H522 lung) was > 100 µM and the TGI (OVCAR-3 ovarian) was > 100 µM. The TGI (OVCAR-4 ovarian) was > 100 µM, the TGI (OVCAR-8 ovarian) was > 100 µM and the TGI (RPMI-8226 leukemia) was > 100 µM. The TGI (RXF 393 renal) was > 100 µM, the TGI (SF-268 CNS) was > 100 µM and the TGI (SF-295 CNS) was > 100 µM. The TGI (SF-539 CNS) was > 100 µM, the TGI (SK-MEL-2 melanoma) was > 100 µM and the TGI (SK-MEL-28 melanoma) was > 100 µM. The TGI (SK-OV-3 ovarian) was > 100 µM, the TGI (SN12C renal) was > 100 µM and the TGI (SNB-19 CNS) was > 100 µM. For the same molecule, the TGI (SNB-75 CNS) was > 100 µM, the TGI (SR leukemia) was > 100 µM and the TGI (SW-620 colon) was > 100 µM. The TGI (TK-10 renal) was > 100 µM, the TGI (U251 CNS) was > 100 µM and the TGI (UACC-257 melanoma) was > 100 µM. The TGI (UACC-62 melanoma) was > 100 µM, the TGI (UO-31 renal) was > 100 µM and the TGI (XF 498 CNS) was > 100 µM.
C=CCc1ccc(O)c(-c2cc(C3Oc4c(-c5cc(CC=C)ccc5O)cc(O)cc4[C@@H]3CO)ccc2O)c1 (stereo not given in full) was tested, and the TGI (786-0 renal) was > 100 µM, the TGI (A498 renal) was 61.5 µM and the TGI (A549 NSCLC) was > 100 µM. The TGI (ACHN renal) was > 100 µM, the TGI (CAKI-1 renal) was > 100 µM and the TGI (CCRF-CEM leukemia) was 43.7 µM. The TGI (COLO 205 colon) was > 100 µM, the TGI (DLD-1 colon) was 38.6 µM and the TGI (DMS 114 small cell lung) was 28.1 µM. The TGI (DMS 273 small cell lung) was 44.5 µM, the TGI (EKVX NSCLC) was > 100 µM and the TGI (HCC-2998 colon) was 68.7 µM. The TGI (HCT-116 colon) was 43.3 µM, the TGI (HCT-15 colon) was 29.3 µM and the TGI (HL-60(TB) leukemia) was 38.5 µM. For the same molecule, the TGI (HOP-18 NSCLC) was > 100 µM, the TGI (HOP-62 NSCLC) was 75 µM and the TGI (HOP-92 NSCLC) was 64.9 µM. For the same molecule, the TGI (HT29 colon) was 79.3 µM, the TGI (IGROV1 ovarian) was 51.6 µM and the TGI (K-562 leukemia) was 34.1 µM. It also gave a TGI (KM12 colon) of 85.7 µM, a TGI (KM20L2 colon) of 60.3 µM and a TGI (LOX IMVI melanoma) of 32.3 µM. For the same molecule, the TGI (LXFL 529 NSCLC) was 52.5 µM, the TGI (M14 melanoma) was > 100 µM and the TGI (M19-MEL melanoma) was > 100 µM. The TGI (MALME-3M melanoma) was > 100 µM, the TGI (NCI-H226 lung) was > 100 µM and the TGI (NCI-H23 lung) was 76.4 µM. The TGI (NCI-H460 lung) was > 100 µM, the TGI (NCI-H522 lung) was 38.7 µM and the TGI (OVCAR-3 ovarian) was 74.5 µM. The TGI (OVCAR-4 ovarian) was > 100 µM, the TGI (OVCAR-5 ovarian) was > 100 µM and the TGI (OVCAR-8 ovarian) was > 100 µM. It also gave a TGI (RPMI-8226 leukemia) of 65.6 µM, a TGI (RXF 393 renal) of 55.8 µM and a TGI (SF-268 CNS) of 82.5 µM. For the same molecule, the TGI (SF-295 CNS) was > 100 µM, the TGI (SF-539 CNS) was 56.3 µM and the TGI (SK-MEL-2 melanoma) was 45.9 µM. For the same molecule, the TGI (SK-MEL-28 melanoma) was 76.8 µM, the TGI (SK-MEL-5 melanoma) was 65 µM and the TGI (SK-OV-3 ovarian) was > 100 µM. The TGI (SN12C renal) was > 100 µM, the TGI (SNB-19 CNS) was 78.7 µM and the TGI (SNB-75 CNS) was > 100 µM. For the same molecule, the TGI (SNB-78 CNS) was > 100 µM, the TGI (SR leukemia) was 47.7 µM and the TGI (SW-620 colon) was 31.1 µM. For the same molecule, the TGI (TK-10 renal) was > 100 µM, the TGI (U251 CNS) was 68.7 µM and the TGI (UACC-257 melanoma) was > 100 µM. For the same molecule, the TGI (UACC-62 melanoma) was 89.1 µM and the TGI (UO-31 renal) was > 100 µM.
